Test results taken from patent US20140106387A1, “METHOD FOR CONTROLLING NAD(P)/NAD(P)H RATIO BY OXIDOREDUCTASE” (MD BIOALPHA CO., LTD., priority 2006, published 2014).

Columns and labels:
ACC, CPT, HAD = test: enzyme assays, malonyl-CoA content and fatty acid oxidation in DIO mice; assay type: in vivo, mouse
Method: For Enzyme assays, cytoplasm was extracted from mouse tissues. Dicoumarol-sensitive NQO1 activity was determined by a conventional method known in the art: This method is based on an absorbance decrease at 600 nm due to bioreduction of DCPIP. Total AMPK activity was determined with a known method using synthetic “SAMS” peptides and [γ-^32P] ATP. ACC activity was determined by quantifying fixation of ^14CO2 to the acid-stable product in the presence/absence of citrate (2 mM) as an allosteric activator of ACC. CPT (carnitine palmitoyl transferase) activity was measured in L6 myoblasts and soleus muscle by a known method. HAD (3-hydroxyacyl-CoA dehydrogenase) activity was determined in L6 myoblasts and soleus muscle by monitoring conversion of acetoacetyl-CoA into L-3-hydroxybutyryl CoA and the concomitant oxidation of NADH into NAD^+. The reaction was monitored at 340 nm by a known method.
[^14C]palmitoyl-CoA (Perkin Elmer) oxidation was determined in L6 myoblasts and soleus muscle by a known method using labeled CO2 and 0.2 mL of benzethonium chloride solution.
Contents of Malonyl-CoA were determined by a known method, e.g. HPLC. Acyl-CoA esters were separated by HPLC using 0.2 M ammonium acetate-containing acetonitrile/water (1.75:98.25). Samples were washed with 20 min, and subjected to 100 min linear gradient elution from acetonitrile/water (10:90) containing 0.2 M ammonium acetate.
That is, such facts mean that chronic treatment of βL can accelerate mitochondrial oxidative phosphorylation and enhance adaptive mitochondrial biogenesis. Therefore, βL can be used as a therapeutic agent for metabolic diseases.

AMPK, ACC = test: AMPK and ACC phosphorylation in HepG2 cells (Western blot); assay type: cell-based, human
Method: Cells were lysed in SDS sample buffer (62.5 mM Tris HCl (pH 6.8), 6% (w/v) SDS, 30% glycerol, 125 mM DTT, and 0.03% (w/v) bromophenol blue). The total cell lysates were boiled at a temperature of 100° C. for 5 min and electrophoresed on a sodium dodecyl sulfate-polyacrylamide gel, and proteins were transferred on a nitrocellulose membrane. The membrane was reacted in TBS (5% (w/v) milk and 0.1% Tween 20) for 1 hour, and then reacted with primary antibodies for 2 hours. Next, the membrane was developed using HRP-conjugated secondary antibodies (Phototope-HRP Western Blot Detection Kit, New England Biolabs, Beverly, Mass.).
HepG2 (human hepatoma cell line), HEK293 (Human embryonic kidney cell line), and C2C12/L6 myoblasts were purchased from American Type Culture Collection (ATCC, Manassas, Va., USA). LKB−/− MEFs were purchased from R.A. DePinho. Rat ventricular myocytes were enzymatically isolated from the heart of adult […] by a known method. Phosphorylation of AMPK (Thr172) and ACC (Ser79) was measured by Western blot analysis using Cell Signaling Technologies and pan- and phospho-specific antibodies (Upstate Biotechnology, Inc., Lake Placid, N.Y.).
This Example was carried out to confirm whether an NQO1 activator has effects through NQO1 on phosphorylation of AMPK and ACC that are intracellular energy-regulating proteins. In order to examine phosphorylation of AMP kinase and ACC (acetyl-CoA carboxylase) by the NQO1 activator pyrano-1,2-naphthoquinone, HepG2 cells (Human hepatoma cell line) were seeded onto a 6-well plate at a density of 1×10^5 cells per well, and cultured in a RPMI+10% FBS medium. After growing the cells for 24 hours, the culture medium was replaced with a serum-free RPMI medium and cells were treated with pyrano-1,2-naphthoquinone (10 μM) for 30 min, 1 hr, 2 hrs, 4 hrs and 6 hrs, in combination with a control (DMSO). Anti-ACC and Anti-pS79-ACC were used to observe phosphorylated ACC, whereas Anti-AMPK and Anti-pT172-AMPK were used to observe phosphorylated AMP kinase.
In order to investigate the importance of an NQO1 protein in phosphorylation of AMP kinase, HepG2, MCF-7 and HEK293 cells were seeded onto 60 mm plates at a density of 1×10^6 cells/plate. After growing the cells for 24 hours, the culture medium was replaced with a serum-free medium, and cells were treated with pyrano-1,2-naphthoquinone (10 μM) for 30 min, respectively, in combination with a control group (DMSO). Cells were lysed in RIPA buffer and amounts of all proteins were quantified using a spectrophotometer, and 50 μg of the protein was subjected to electrophoresis. AMP kinase phosphorylation was examined using Anti-AMPK and Anti-pT172-AMPK, whereas the NQO1 protein was assayed using Anti-NQO1. […]

[1] = blood metabolic parameters in C57BL/6 DIO mice; assay type: in vivo, mouse
Method: O2 consumption of animals was recorded by a known method. For indirect calorimetry, mice were individually housed in calorimetry chambers (Oxymax OPTO-M3 system; Columbus Instruments, Columbus, Ohio). Animals were allowed to acclimate to a new environment for 48 hours prior to the experiment, and amounts of O2 consumption and CO2 production were measured for […] every 30 minutes. Mice were given free access to food and drinking water during the first 24 h period, and animals were given access to drinking water only during the second 24 h period. Blood samples were taken from a heparinized tube, immediately placed on ice, centrifuged and stored at −20[…] for future use. Enzymatic colorimetry was employed for quantification of triglyceride (TG), total cholesterol, free fatty acids, and glucose (Beckman Instruments, CA). Plasma insulin (Linco Research, MO), TNFα (R&D System), adiponectin (Linco Research, MO), resistin (KOMED) and leptin (Linco Research, MO) were quantified by ELISA.

[2] = muscle of DIO mice vs control group

SMILES: CC1(C)CCC2=C(O1)c1ccccc1C(=O)C2=O [βL, 2,2-Dimethyl-3,4-dihydro-2H-benzo[h]chromene-5,6-dione]
- 14C-palmitoyl CoA β-oxidation (ACC, CPT, HAD; [2]): significantly increased
- CPT activity (ACC, CPT, HAD; [2]): significantly increased
- HAD activity (ACC, CPT, HAD; [2]): significantly increased
- ACC activity (ACC, CPT, HAD; βL-treated DIO mice): decreased
- malonyl CoA level (ACC, CPT, HAD; βL-treated DIO mice): decreased
- duration of AMP kinase phosphorylation effects (AMPK, ACC; HepG2, 10 μM): up to 6 hours
- initial time point at which phosphorylation of AMP kinase was observed (AMPK, ACC; HepG2, 10 μM): 30 min
- phosphorylation of ACC (AMPK, ACC; HepG2, 10 μM): also phosphorylated
- ACC phosphorylation and AMPK phosphorylation/activation (AMPK, ACC; HepG2 cells): accelerates
- blood level of resistin ([1]; 50 mg/kg daily oral): significantly improved
- insulin resistance and leptin resistance ([1]; 50 mg/kg daily oral): improved
- blood fat and glucose levels ([1]; Days 3, 7, 14, 28 and 56, 50 mg/kg daily oral): significantly improved
